Measurements published in patent publication US20090054470A1, “USE OF MITOCHONDRIAL ELECTRON TRANSPORT INHIBITORS TO CONTROL FOULING ORGANISMS” (priority 2005, published 2009).

Experiments:
animal fouling = experiment: Field evaluation of marine antifouling activity (painted PVC boards immersed in sea water); settings: Oosterschelde at Bruinisse, average of two scores; for Fouling scores after 12 weeks: rosin paint on PVC panels; for Fouling scores after x weeks: vinylite paint on PVC panels
Excerpt: 2. Field Evaluation of Marine Antifouling Activity […]
Composition vinylite paint (% w/w): 9.1% test compound (74% in the dried coating), 3.2% vinylite, 87.7% cyclohexanone.
Composition rosin paint (% w/w): 6.7% test compound (18.4% in the dried coating), 34.9% rosin (69.6% in xylene), 6.3% vinyl resin, 5.7% tritolyl phosphate, 45.0% methyl isobutylketone and 1.4% xylene.
The PVC boards (10×2×0.5 cm) were painted twice to obtain a coating layer of 140 g/m^2 having a thickness of 50 μm and dried for two weeks before immersion in sea water. The exact quantity of test compound on each board was determined by comparing the initial and final weights of the PVC boards. The PVC boards were placed in a frame and suspended from the bottom of a raft at a depth of 0.6 m below the sea water surface level.
Rating system to evaluate surface fouling:
score 0: no growth on the panel score 1: up to 20% of the surface covered by fouling organisms score 2: between 21% and 40% of the surface covered by fouling organisms score 3: between 41% and 60% of the surface covered by fouling organisms score 4: between 61% and 80% of the surface covered by fouling organisms score 5: more than 81% of the surface covered by fouling organisms
Figures are an average of two scores (back and front of test panel).

[1] = tested on: Artemia salina instar II larvae; experiment: In vitro efficacy against Artemia salina (larval survival); assay type: in vivo
Description: 1. In Vitro Efficacy Against Artemia salina
The crustaceous marine animal Artemia salina was used as a model organism for other marine fouling organisms.
An artificial seawater medium inoculated with approximately 30 Artemia salina instar II larvae was introcuced in each well of a 24 well microtiter plate (2 ml per well). This culture was incubated with the test compound dissolved in dimethylsulfoxide (8000 ppm stock solution in DMSO) in order to have a final concentration of the test compound ranging from 0.027 ppm to 20 ppm in 24 steps. Survival of the Artemia salina larvae was evaluated after 24 and 48 hours. Zinc pyrithione was used as a reference art known antifouling agent and a DMSO solution without test compound was used as control.
The ECX value (in […]=ppm): lowest concentration of the test compound at which moderate activity (reduced vitality of Artemia salina larvae) was observed and has been listed below in Table 1.

Row | Compound | Fouling scores after 12 weeks (animal fouling) | ECX (lowest concentration at which reduced vitality of Artemia salina larvae) ([1]; 24 hours) | MIC (lowest concentration at which all Artemia salina larvae dead) ([1]; 24 hours) | ECX (lowest concentration at which reduced vitality of Artemia salina larvae) ([1]; 48 hours) | MIC (lowest concentration at which all Artemia salina larvae dead) ([1]; 48 hours) | Fouling scores after x weeks (animal fouling; 4 weeks) | Fouling scores after x weeks (animal fouling; 8 weeks) | Fouling scores after x weeks (animal fouling; 15 weeks)
1 | CC(C)(C)c1ccc(CSc2cnn(C(C)(C)C)c(=O)c2Cl)cc1 [pyridaben] | 1.5 | 0.36 mg/l (=ppm) | 2 mg/l (=ppm) | 0.36 mg/l (=ppm) | 0.48 mg/l (=ppm) |  |  | 
2 | Zinc pyrithione |  | 8.44 mg/l (=ppm) | 20 mg/l (=ppm) | 6.33 mg/l (=ppm) | 11.25 mg/l (=ppm) |  |  | 
3 | CC(C)(C)c1ccc(CCOc2ncnc3ccccc23)cc1 [fenazaquin] |  | 0.84 mg/l (=ppm) | 1.5 mg/l (=ppm) | 0.84 mg/l (=ppm) | 1.5 mg/l (=ppm) | 0 | 0 | 3 (score 3: between 41% and 60% of the surface covered by fouling organisms)
4 | CCc1nn(C)c(C(=O)NCc2ccc(C(C)(C)C)cc2)c1Cl [tebufenpyrad] | 1.5 | 1.13 mg/l (=ppm) | 2 mg/l (=ppm) | 0.84 mg/l (=ppm) | 1.5 mg/l (=ppm) |  |  | 
